Measurements reported in publication PMC11505029, “Isatin Bis-Imidathiazole Hybrids Identified as FtsZ Inhibitors with On-Target Activity Against Staphylococcus aureus” (Antibiotics, 2024).
Entries after “also recorded” stand apart in the source; their conditions may differ.

Columns and labels:
S. aureus ATCC 25923 = test: broth microdilution antimicrobial activity, S. aureus reference strain; format: cell-based, Staphylococcus aureus
Protocol: (§1) Reference bacterial strains of Staphylococcus aureus (ATCC 25923), Escherichia coli (ATCC 25922), and Candida albicans (ATCC 10231) were used in this study as Gram-positive, Gram-negative, and fungal models, respectively. These reference strains were purchased from the American Type Culture Collection (ATCC, Manassas, VA, USA); bacterial cultures were routinely grown at 37 °C on 5% blood agar plate, while fungal cultures on Sabouraud Dextrose Agar (Biolife Italiana S.r.l., Milan, Italy).
(§2) The dry powder of the isatin derivatives was resuspended in dimethylsulfoxide (DMSO) at 20 mM and used as stock solutions. For biological investigations, compounds were used in the range 100–0.78 µM, and the solvent in the corresponding percentage range.
(§3) The antimicrobial activity of the compounds was assessed by a well-established broth microdilution procedure in microtiter plates and in compliance with the Clinical and laboratory Standard Institute (CLSI) guidelines (Clinical and Laboratory Standards Institute, Wayne, PA, USA). In short, microbial inocula were prepared at 0.5 McFarland in PBS and, subsequently, bacterial suspensions were diluted 1:200 in Mueller–Hinton broth (Sigma-Aldrich, St. Louis, MO, USA), while fungal inoculum was diluted 1:20 in RPMI-1640 medium (Gibco®, ThermoFisher Scientific Inc., Waltham, MA, USA), containing 2% glucose and 0.3% levo-glutamine buffered to pH 7.0 with 0.165 M 3-(N-morpholino)propanesulfonic acid (MOPS). A total of 100 µL of these microbial suspensions were introduced in a 96-well microplate and incubated with 100 µL of the compounds, two-fold serially diluted in the range of 100–0.19 µM. Positive controls (microbial suspensions in regular media), negative controls (only compounds), and solvent controls (microbial suspensions incubated with DMSO dilutions) were included in the tests. The plate was incubated at 37 °C for 24 h, and subsequently, the optical density at 630 nm (OD630nm) was spectrophotometrically measured. Each experiment was carried out with three technical replicates (i.e., three wells per sample) and repeated at least two times for statistical power. […] IC50 values, corresponding to the concentration of the compound giving rise to an inhibition of growth of 50%, were obtained by interpolation on dose–response curves generated by plotting the percentages of growth inhibition, relative to the positive control (set to 100% of growth), as a function of the tested concentrations (on a logarithm scale). Statistical analysis was carried out using GraphPad Prism version 9.4.1 for Windows (GraphPad Software, San Diego, CA, USA, www.graphpad.com).

E. coli ATCC 25922 = test: broth microdilution antimicrobial activity, E. coli reference strain; format: cell-based, Escherichia coli; conditions: 100 μM, growth relative to positive control, mean ± SD
Protocol: as §1, §2, §3

[1] = cell viability and proliferation assay (WST8/CCK-8); format: cell-based; conditions: African green monkey, Vero cells (ATCC CCL-81); Vero cells; mean [95% confidence interval]
Protocol: (§4) Vero cell line (ATCC CCL-81) was selected as the model system to assess the effect of the isatin hybrids on normal epithelial cells, and a previously established protocol was used with minor modifications. Briefly, cells were cultured in RPMI-1640 medium supplemented with 10% fetal bovine serum (FBS) (Carlo Erba Reagents, Milan, Italy), 100 U/mL penicillin, and 100 µg/mL streptomycin at 37 °C with 5% CO2. For experiments, cells were seeded into 96-well plates at 10^4 cells/well, and incubated at 37 °C for 24 h. Following washes with PBS, the cell monolayer was incubated with 100 µL of medium containing the 2-fold serial dilutions of the compounds. Both untreated cells and cells incubated with medium containing solvent dilutions were included in each experiment as controls. The cell viability was assessed by a WST8-based assay according to the manufacturer’s instructions (CCK-8, Cell Counting Kit-8, Dojindo Molecular Technologies, Rockville, MD, USA). After 48 h of incubation, culture medium was removed from each well, the monolayer was washed with PBS, and 100 µL of fresh medium containing 10 µL of CCK-8 solution were added. After 2 h at 37 °C, the OD450nm was read, and data were expressed as the percentage of the cell viability relative to the untreated controls. The CC50 was obtained from the corresponding dose–response curves generated, as previously reported for IC50 values.

[2] = test system: Vero cell line (ATCC CCL-81); test: as above; format: cell-based; conditions: 100 μM, viability relative to untreated controls, mean ± SD
Protocol: as §4

[3] = test system: human red blood cells (hRBCs); test: hemolytic assay; format: cell-based; conditions: for Hemolytic activity, percentage values: mean ± SD
Protocol: The hemolytic activity of some selected compounds was evaluated as the amount of hemoglobin released by the disruption of human red blood cells (hRBCs). For the experiments, fresh hRBCs, obtained from peripheral blood of anonymous blood donors available for research purposes, were collected by centrifugation at 1500 g for 10 min, washed 3 times with PBS, and resuspended to a final concentration of 4% w/v hRBCs in PBS. Then, 100 µL of hRBCs suspension and an equal volume of the 2-fold dilutions of the […] were mixed in a 96-well plate and incubated for 1 h at 37 °C. […] Untreated hRBCs (incubated with PBS) and hRBCs incubated with 1% Triton X-100 were employed as negative and positive controls, respectively. The hemolysis percentage was calculated as [OD405nm (sample) − OD405nm (negative control)]/[OD405nm (positive control) − OD405nm (negative control)] × 100. Minimal hemolytic concentrations (MHCs) were defined as the compound concentrations causing 10% hemolysis.

S. aureus MRSA 2 = test: dose-response against clinical isolate MRSA 2; format: cell-based; conditions: Staphylococcus aureus, mean [95% confidence interval]
Protocol: (§5) The antimicrobial activity of the compounds was assessed by a well-established broth microdilution procedure in microtiter plates and in compliance with the Clinical and laboratory Standard Institute (CLSI) guidelines (Clinical and Laboratory Standards Institute, Wayne, PA, USA). In short, microbial inocula were prepared at 0.5 McFarland in PBS and, subsequently, bacterial suspensions were diluted 1:200 in Mueller–Hinton broth (Sigma-Aldrich, St. Louis, MO, USA), while fungal inoculum was diluted 1:20 in RPMI-1640 medium (Gibco®, ThermoFisher Scientific Inc., Waltham, MA, USA), containing 2% glucose and 0.3% levo-glutamine buffered to pH 7.0 with 0.165 M 3-(N-morpholino)propanesulfonic acid (MOPS). A total of 100 µL of these microbial suspensions were introduced in a 96-well microplate and incubated with 100 µL of the compounds, two-fold serially diluted in the range of 100–0.19 µM. Positive controls (microbial suspensions in regular media), negative controls (only compounds), and solvent controls (microbial suspensions incubated with DMSO dilutions) were included in the tests. The plate was incubated at 37 °C for 24 h, and subsequently, the optical density at 630 nm (OD630nm) was spectrophotometrically measured. Each experiment was carried out with three technical replicates (i.e., three wells per sample) and repeated at least two times for statistical power. […]

S. aureus MRSA 3 = test: dose-response against clinical isolate MRSA 3; format: cell-based; conditions: Staphylococcus aureus, mean [95% confidence interval]
Protocol: as §5

S. aureus MRSA 4 = test: dose-response against clinical isolate MRSA 4; format: cell-based; conditions: Staphylococcus aureus, mean [95% confidence interval]
Protocol: as §5

S. aureus MRSA 5 = test: dose-response against clinical isolate MRSA 5; format: cell-based; conditions: Staphylococcus aureus, mean [95% confidence interval]
Protocol: as §5

IC50 (S. aureus ATCC 25923; Staphylococcus aureus, ATCC25923, S. aureus ATCC 25923, mean [95% confidence interval]): 13.8 µM | IC50 (S. aureus MRSA 2): 27.5 µM | IC50 (S. aureus MRSA 3): 8.7 µM | IC50 (S. aureus MRSA 4): 11.3 µM | IC50 (S. aureus MRSA 5): 21.2 µM
SMILES: O=C1Nc2cc(OC(F)(F)F)ccc2C1(c1c(Cl)nc2sccn12)c1c(Cl)nc2sccn12 [Compound 11, 3,3-bis(6-Chloroimidazo[2,1-b]thiazol-5-yl)-6-(trifluoromethoxy)indolin-2-one]
SI (selectivity index, CC50/IC50) (S. aureus ATCC 25923; CC50 Vero / IC50 S. aureus): 4.6 | Microbial growth, E. coli (E. coli ATCC 25922): did not inhibit the growth | activity at 100 µM (E. coli ATCC 25922; Escherichia coli, ATCC25922, read-out: Microbial growth, E. coli): 108 ± 2.4% | CC50 at 48 h [1]: 63.3 µM | Cell proliferation, Vero [2]: most toxic | viability at 100 µM ([2]; Chlorocebus sabaeus, Vero, 48 h, read-out: Cell proliferation, Vero): 21.1 ± 3.3% | Hemolytic activity, percentage values ([3]; 1.56 µM): 0.9 ± 1.8% | Hemolytic activity, percentage values ([3]; 3.125 µM): 1.1 ± 1.2% | Hemolytic activity, percentage values ([3]; 6.25 µM): 2.3 ± 0.2% | Hemolytic activity, percentage values ([3]; 12.5 µM): 2.2 ± 0.5% | Hemolytic activity, percentage values ([3]; 25 µM): 1.8 ± 1.5% | Hemolytic activity, percentage values ([3]; 50 µM): 0.7 ± 1.5% | Hemolytic activity, percentage values ([3]; 100 µM): 1.1 ± 0.4% | hemolytic activity ([3]; range 100–1.56 µM): did not show an appreciable hemolytic activity; also recorded: no hemolytic property
